{"source": "patent US5099015A", "about": "“Trifluoromethyl 1-carba(1-dethia)cephems” (Eli Lilly and Company, priority 1991, dated 1992)", "assay_in_all_cases": "Agar dilution antibacterial test (MIC)", "format_in_all_cases": "cell-based", "key": {"[1]": {"system": "Enterobacter cloacae 265A", "protocol": "(§1) Fresh overnight cultures of test bacteria were diluted to approximately 1x(10)4 cells/microliter and applied in one microliter volumes to the surfaces of the agar plates. The innoculated plates were incubated overnight at 35° C. in ambient air. Minimum inhibitory concentration (mic) endpoints were recorded as the lowest antibiotic concentrations in micrograms per milliliter that inhibited the development of visible growth on the plates. The following summarizes the results of such tests with the compounds of the examples listed above."}, "[2]": {"system": "Klebsiella pneumoniae X68", "protocol": "as §1"}, "[3]": {"system": "Enterobacter cloacae EB5", "protocol": "as §1"}, "[4]": {"system": "Serratia X99", "protocol": "as §1"}, "[5]": {"system": "Enterococcus faecium X66", "protocol": "as §1"}, "[6]": {"system": "Enterobacter aerogenes C32", "protocol": "as §1"}, "[7]": {"system": "Salmonella X514", "protocol": "as §1"}, "[8]": {"system": "Proteus rett C24", "conditions": "Proteus rett C24", "protocol": "as §1"}, "[9]": {"system": "Haemophilus influenzae C.L.", "protocol": "as §1"}, "[10]": {"system": "Staphylococcus aureus S13E", "protocol": "as §1"}, "[11]": {"system": "Staphylococcus pneumoniae Park 1", "protocol": "as §1"}, "[12]": {"system": "Staphylococcus aureus V41", "protocol": "as §1"}, "[13]": {"system": "Enterobacter aerogenes EB17", "protocol": "as §1"}, "[14]": {"system": "Proteus incon PR33", "protocol": "as §1"}, "[15]": {"system": "Klebsiella pneumoniae X26", "protocol": "as §1"}, "[16]": {"system": "Staphylococcus aureus X400", "protocol": "as §1"}, "[17]": {"system": "Morg morg PR15", "protocol": "as §1"}, "[18]": {"system": "Acom AC12", "protocol": "as §1"}, "[19]": {"system": "Staphylococcus aureus NRRL X1.1", "protocol": "as §1"}, "[20]": {"system": "Escherichia coli EC14", "protocol": "as §1"}, "[21]": {"system": "Shig sonn. N9", "protocol": "as §1"}, "[22]": {"system": "Staphylococcus epidermidis EPI270", "protocol": "as §1"}, "[23]": {"system": "Staphylococcus pyogenes C203", "protocol": "as §1"}, "[24]": {"system": "Enterococcus faecalis 2041", "protocol": "as §1"}, "[25]": {"system": "Klebsiella pneumoniae KAE", "protocol": "as §1"}, "[26]": {"system": "Escherichia coli TEM", "protocol": "as §1"}, "[27]": {"system": "Serratia SE3", "protocol": "as §1"}, "[28]": {"system": "Salmonella 1335", "protocol": "as §1"}, "[29]": {"system": "Escherichia coli N10", "protocol": "as §1"}, "[30]": {"system": "Citro CF17", "protocol": "as §1"}, "[31]": {"system": "Staphylococcus epidermidis 222", "protocol": "as §1"}, "[32]": {"system": "Haemophilus influenzae 76", "protocol": "as §1"}, "[33]": {"conditions": "Klebsiella aerogenes, read-out: MIC"}}, "note": "Like-named read-outs stand apart in the source and are kept apart here.", "data": [{"compound": "N[C@@H](C(=O)N[C@@H]1C(=O)N2C(C(=O)O)=C(C(F)(F)F)CC[C@H]12)c1ccc(F)cc1", "note": "[Compound 3, [6R,7S]-7-β-[D-α-(amino)-4-fluorophenylacetylamino]-3-trifluoromethyl-1-carba-1-dethia-3-cephem-4-carboxylic acid]", "values": [{"measurement": "MIC", "setting": "[1]; read-out: MIC", "result": 8, "unit": "µg/mL"}, {"measurement": "MIC", "setting": "[2]; read-out: MIC", "result": 1, "unit": "µg/mL"}, {"measurement": "MIC", "setting": "[3]; read-out: MIC", "result": 8, "unit": "µg/mL"}, {"measurement": "MIC", "setting": "[4]; read-out: MIC", "result": 16, "unit": "µg/mL"}, {"measurement": "MIC", "setting": "[5]; read-out: MIC", "result": 32, "unit": "µg/mL"}, {"measurement": "MIC", "setting": "[6]; [33]", "result": 8, "unit": "µg/mL"}, {"measurement": "MIC", "setting": "[7]; read-out: MIC", "result": 0.5, "unit": "µg/mL"}, {"measurement": "MIC", "setting": "[8]; read-out: MIC", "result": 8, "unit": "µg/mL"}, {"measurement": "MIC", "setting": "[9]; read-out: MIC", "result": 0.5, "unit": "µg/mL"}, {"measurement": "MIC", "setting": "[10]", "result": 32, "unit": "µg/mL"}, {"measurement": "MIC", "setting": "[11]; PARK1, read-out: MIC", "result": 0.25, "unit": "µg/mL"}, {"measurement": "MIC", "setting": "[12]; read-out: MIC", "result": 16, "unit": "µg/mL"}, {"measurement": "MIC", "setting": "[13]; [33]", "result": 8, "unit": "µg/mL"}, {"measurement": "MIC", "setting": "[14]; read-out: MIC", "result": 8, "unit": "µg/mL"}, {"measurement": "MIC", "setting": "[15]; read-out: MIC", "result": 0.5, "unit": "µg/mL"}, {"measurement": "MIC", "setting": "[16]; read-out: MIC", "result": 64, "unit": "µg/mL"}, {"measurement": "MIC", "setting": "[17]; read-out: MIC", "result": 16, "unit": "µg/mL"}, {"measurement": "MIC", "setting": "[18]; read-out: MIC", "result": 64, "unit": "µg/mL"}, {"measurement": "MIC", "setting": "[19]; NRRLX1.1, read-out: MIC", "result": 1, "unit": "µg/mL"}, {"measurement": "MIC", "setting": "[20]; read-out: MIC", "result": 1, "unit": "µg/mL"}, {"measurement": "MIC", "setting": "[21]; read-out: MIC", "result": 2, "unit": "µg/mL"}, {"measurement": "MIC", "setting": "[22]; read-out: MIC", "result": 4, "unit": "µg/mL"}, {"measurement": "MIC", "setting": "[23]; read-out: MIC", "result": 0.06, "unit": "µg/mL"}, {"measurement": "MIC", "setting": "[24]; read-out: MIC", "result": 32, "unit": "µg/mL"}, {"measurement": "MIC", "setting": "[25]; read-out: MIC", "result": 8, "unit": "µg/mL"}, {"measurement": "MIC", "setting": "[26]; read-out: MIC", "result": 1, "unit": "µg/mL"}, {"measurement": "MIC", "setting": "[27]; read-out: MIC", "result": 32, "unit": "µg/mL"}, {"measurement": "MIC", "setting": "[28]; read-out: MIC", "result": 2, "unit": "µg/mL"}, {"measurement": "MIC", "setting": "[29]; read-out: MIC", "result": 4, "unit": "µg/mL"}, {"measurement": "MIC", "setting": "[30]; read-out: MIC", "result": 8, "unit": "µg/mL"}, {"measurement": "MIC", "setting": "[31]; read-out: MIC", "result": 4, "unit": "µg/mL"}, {"measurement": "MIC", "setting": "[32]; read-out: MIC", "result": 1, "unit": "µg/mL"}]}, {"compound": "CCS(=O)(=O)Nc1cccc(C(N)C(=O)N[C@@H]2C(=O)N3C(C(=O)O)=C(C(F)(F)F)CC[C@H]23)c1", "note": "(stereo partly shown) [Compound 6]", "values": [{"measurement": "MIC", "setting": "[1]", "result": 32, "unit": "µg/mL"}, {"measurement": "MIC", "setting": "[2]", "result": 1, "unit": "µg/mL"}, {"measurement": "MIC", "setting": "[3]", "result": 32, "unit": "µg/mL"}, {"measurement": "MIC", "setting": "[4]", "result": 64, "unit": "µg/mL"}, {"measurement": "MIC", "setting": "[5]", "result": 64, "unit": "µg/mL"}, {"measurement": "MIC", "setting": "[6]", "result": 16, "unit": "µg/mL"}, {"measurement": "MIC", "setting": "[7]", "result": 1, "unit": "µg/mL"}, {"measurement": "MIC", "setting": "[8]", "result": 32, "unit": "µg/mL"}, {"measurement": "MIC", "setting": "[9]", "result": 1, "unit": "µg/mL"}, {"measurement": "MIC", "setting": "[10]", "result": 32, "unit": "µg/mL"}, {"measurement": "MIC", "setting": "[11]", "result": 0.125, "unit": "µg/mL"}, {"measurement": "MIC", "setting": "[12]", "result": 8, "unit": "µg/mL"}, {"measurement": "MIC", "setting": "[13]", "result": 16, "unit": "µg/mL"}, {"measurement": "MIC", "setting": "[14]", "result": 16, "unit": "µg/mL"}, {"measurement": "MIC", "setting": "[15]", "result": 0.25, "unit": "µg/mL"}, {"measurement": "MIC", "setting": "[16]", "result": 32, "unit": "µg/mL"}, {"measurement": "MIC", "setting": "[17]", "result": 16, "unit": "µg/mL"}, {"measurement": "MIC", "setting": "[18]", "result": 64, "unit": "µg/mL"}, {"measurement": "MIC", "setting": "[19]", "result": 4, "unit": "µg/mL"}, {"measurement": "MIC", "setting": "[20]", "result": 1, "unit": "µg/mL"}, {"measurement": "MIC", "setting": "[21]", "result": 4, "unit": "µg/mL"}, {"measurement": "MIC", "setting": "[22]", "result": 8, "unit": "µg/mL"}, {"measurement": "MIC", "setting": "[23]", "result": 0.06, "unit": "µg/mL"}, {"measurement": "MIC", "setting": "[24]", "result": 32, "unit": "µg/mL"}, {"measurement": "MIC", "setting": "[25]", "result": 32, "unit": "µg/mL"}, {"measurement": "MIC", "setting": "[26]", "result": 1, "unit": "µg/mL"}, {"measurement": "MIC", "setting": "[27]", "result": 128, "unit": "µg/mL"}, {"measurement": "MIC", "setting": "[28]", "result": 8, "unit": "µg/mL"}, {"measurement": "MIC", "setting": "[29]", "result": 8, "unit": "µg/mL"}, {"measurement": "MIC", "setting": "[30]", "result": 32, "unit": "µg/mL"}, {"measurement": "MIC", "setting": "[31]", "result": 4, "unit": "µg/mL"}, {"measurement": "MIC", "setting": "[32]", "result": 4, "unit": "µg/mL"}]}]}
